The source made the active and inactive calls. No cut-off for these calls is given here.
Assays:
Rattus norvegicus [1] = test: Ex vivo inhibition of DPP4 in Wistar rat serum assessed as p-nitroaniline formation at 10 mg/kg, po by incubating compound-treated serum with Gly-Pro-p-nitroanilide substrate and measured for 30 mins by microplate reader analysis; assay type: functional, organism-based
[2] = Metal chelating activity assessed as inhibition of Cu2+ ion-induced oxidation of ascorbic acid compound treated with CuSO4.5H2O for 5 mins followed by ascorbate addition and measured immediately by spectrophotometric analysis
[3] = Anti-glycation activity assessed as inhibition of AGE formation by measuring decrease in glycated BSA protein level incubated for 24 hrs in presence of glucose by fluorescence based assay; assay type: functional
[4] = Anti-glycation activity assessed as inhibition of AGE formation by measuring decrease in glycated BSA protein level at 1000 uM incubated for 24 hrs in presence of glucose by fluorescence based assay relative to control; assay type: functional
[5] = Anti-glycation activity assessed as inhibition of AGE formation by measuring decrease in glycated BSA protein level at 100 uM incubated for 24 hrs in presence of glucose by fluorescence based assay relative to control; assay type: functional
Dipeptidyl peptidase 4 [6] = target: T1, Dipeptidyl peptidase 4 (Homo sapiens, UniProt P27487); assay type: cell-free, Serum
Target sequence in this assay (P27487 whole entry): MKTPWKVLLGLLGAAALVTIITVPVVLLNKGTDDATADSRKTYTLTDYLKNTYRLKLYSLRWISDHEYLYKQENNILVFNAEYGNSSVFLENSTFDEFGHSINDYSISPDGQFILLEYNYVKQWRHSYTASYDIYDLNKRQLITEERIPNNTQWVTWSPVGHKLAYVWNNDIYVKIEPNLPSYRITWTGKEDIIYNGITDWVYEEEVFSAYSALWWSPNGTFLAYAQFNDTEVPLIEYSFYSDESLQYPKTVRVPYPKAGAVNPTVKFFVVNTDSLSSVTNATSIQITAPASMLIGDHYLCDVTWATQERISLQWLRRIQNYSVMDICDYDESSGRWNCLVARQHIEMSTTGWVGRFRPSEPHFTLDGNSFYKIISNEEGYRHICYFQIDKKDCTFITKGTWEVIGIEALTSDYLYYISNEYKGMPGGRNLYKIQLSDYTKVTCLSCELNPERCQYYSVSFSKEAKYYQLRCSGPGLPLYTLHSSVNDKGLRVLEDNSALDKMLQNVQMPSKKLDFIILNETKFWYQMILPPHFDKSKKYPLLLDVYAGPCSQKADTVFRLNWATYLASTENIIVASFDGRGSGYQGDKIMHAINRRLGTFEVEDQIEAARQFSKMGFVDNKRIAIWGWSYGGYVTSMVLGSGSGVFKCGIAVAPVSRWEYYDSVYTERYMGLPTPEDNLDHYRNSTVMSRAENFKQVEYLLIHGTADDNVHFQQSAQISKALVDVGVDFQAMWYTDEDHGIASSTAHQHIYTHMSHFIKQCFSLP

Dipeptidyl peptidase 4 [7] = target: T1, Dipeptidyl peptidase 4; conditions: Serum, at 100 µM
Target sequence in this assay (P27487 whole entry, looked up): as the sequence (P27487 whole entry) above

Rattus norvegicus [8] = test: Ex vivo inhibition of DPP4 in Wistar rat serum assessed as decrease in p-nitroaniline formation at 10 mg/kg, po by incubating 0 to 2 hrs compound-treated serum with Gly-Pro-p-nitroanilide substrate and measured for 30 mins by microplate reader analysis; assay type: functional, organism-based
Rattus norvegicus [9] = test: Ex vivo inhibition of DPP4 in Wistar rat serum assessed as decrease in p-nitroaniline formation at 10 mg/kg, po by incubating 0 to 4 hrs compound-treated serum with Gly-Pro-p-nitroanilide substrate and measured for 30 mins by microplate reader analysis; assay type: functional, organism-based

| Compound | inhibition (Rattus norvegicus [1]) | IC50 [2] [µM] | IC50 [3] [µM] | inhibition [4] [%] | inhibition [5] [%] | IC50 (Dipeptidyl peptidase 4 [6]) [µM] | inhibition (Dipeptidyl peptidase 4 [7]) [%] | inhibition (Rattus norvegicus [8]) | inhibition (Rattus norvegicus [9]) |
| --- | --- | --- | --- | --- | --- | --- | --- | --- | --- |
| CC(C)Nc1nc2scnn2c(=O)c1[N+](=O)[O-] | Active | > 200 | 325 | 69.6 | 30 | – | – | – | – |
| CCc1ccc(CCOc2ccc(CC3SC(=O)NC3=O)cc2)nc1 (stereo not drawn) [PIOGLITAZONE] | – | 44.1 | – | – | – | – | – | – | – |
| CC(=O)OCCNc1nc2scnn2c(=O)c1[N+](=O)[O-] | Active | > 200 | – | 50.8 | 44.8 | – | – | – | – |
| CC(C)(C)Nc1nc2scnn2c(=O)c1[N+](=O)[O-] | Active | 56 | 181 | 63.8 | 21.3 | – | – | – | – |
| O=c1c([N+](=O)[O-])c(NCCCCO)nc2scnn12 | Active | > 200 | – | 43.6 | 26.1 | – | – | – | – |
| CCCNc1nc2scnn2c(=O)c1[N+](=O)[O-] | Active | 62 | – | 52.5 | 14.9 | – | – | – | – |
| O=c1c([N+](=O)[O-])c(NCCc2ccc(Cl)cc2)nc2scnn12 | – | > 200 | 134 | 87.4 | 48.8 | 55.9 | 69.8 | Active | – |
| CC(=O)OCCCCNc1nc2scnn2c(=O)c1[N+](=O)[O-] | Active | > 200 | – | 37.5 | 11.5 | – | – | – | – |
| O=c1c([N+](=O)[O-])c(NCCCO)nc2scnn12 | Active | > 200 | – | 32.7 | 16.1 | – | – | – | – |
| CC(C)CNc1nc2scnn2c(=O)c1[N+](=O)[O-] | Active | 37.2 | 290 | 73.9 | 23.1 | – | – | – | – |
| CC(=O)OCCCNc1nc2scnn2c(=O)c1[N+](=O)[O-] | Active | 115 | – | 37.2 | 12.5 | – | – | – | – |
| O=c1c([N+](=O)[O-])c(NCCc2ccc(O)cc2)nc2scnn12 | Active | > 200 | 167 | 76.8 | 43.8 | > 100 | 42.1 | – | – |
| O=c1c([N+](=O)[O-])c(NCC(O)CO)nc2scnn12 (stereo not drawn) | Active | > 200 | – | 33.7 | 10.3 | – | – | – | – |
| N#C[C@@H]1CCCN1C(=O)CNC12CC3CC(CC(O)(C3)C1)C2 | – | – | – | – | – | – | – | – | Active |
| O=c1c([N+](=O)[O-])c(NCCO)nc2scnn12 | Active | 86.1 | – | 44.4 | 29.5 | – | – | – | – |
| O=C(O)CCCCC1CCSS1 (stereo not drawn) [LIPOIC ACID, ALPHA] | – | 68.9 | – | – | – | – | – | – | – |
| CCCCNc1nc2scnn2c(=O)c1[N+](=O)[O-] | Active | 79.1 | 204 | 77 | 32.1 | – | – | – | – |
| N=C(N)NN [PIMAGEDINE] | – | > 1000 | 765 | 57.8 | 6 | – | – | – | – |
| CC1(C)OCC(CNc2nc3scnn3c(=O)c2[N+](=O)[O-])O1 (stereo not drawn) | Active | 48.1 | 209 | 71.4 | 42.1 | – | – | – | – |
